Assay results from patent US20230310352A1, “NOVEL COMPOSITIONS AND METHODS FOR THE TREATMENT OF LUNG FIBROSIS” (LAURENT PHARMACEUTICALS INC., priority 2020, published 2023).
“Also recorded” adds a separate entry of the source.

How the values were obtained:
[1] = test system: Normal human lung fibroblast cells (NHLF cells, ATCC CRL-7000); test: Pro-collagen 1A1 protein by ELISA after TGF-β1 exposure in NHLF; assay type: cell-based; conditions: TGF-β1 2 ng/mL + fenretinide 1, 2, 3, 4 μM, 3 days
Method: NHLF cells were incubated for 3 days at 37° C. and treated with TGF-β1 (2 ng/mL) or TGF-β1 (2 ng/mL)+Fenretinide (1, 2, 3, 4 μM). At the end of the 3 day-treatment period, media was collected in identified tubes, centrifuged at 2,000 g for 20 minutes and stored at −80° C. Cells were collected using trypsin, transferred in identified tubes and centrifuged at 1,000 g for 5 minutes. Cells were then washed twice in PBS 1X prior to be resuspended in ELISA lysis buffer. Pro-collagen 1A1 protein contents were determined using Abcam ELISA detection kit (Ab210966). Experiment performed in quadruplicate.

human lung microtissues = test: Contractile force of TGF-β1 treated 3D lung microtissues (micropillar deflection); assay type: cell-based; conditions: for contractile force, reduction vs TGF-β1 only treated condition, percentage change: Day 6
Excerpt: The lung microtissue chip system used is based on bio-MEMS technology that can assemble 3D cell-populated submillimeter microtissues in arrays of polydimethylsiloxane (PDMS) microwells. In each microwell, human lung fibroblasts or epithelial cells spontaneously contract and assemble the matrix proteins, such as collagen, into microtissues that anchor on top of an array of micropillars. The flexible micropillars serve as in situ force sensors that can report the contractile force generated by the tissue.
The effect of fenretinide on the inhibition of microtissue contractile force in a preventative treatment regimen was also measured. Increased contractile force is one of the main biomechanical features associated with fibrosis progression. The spontaneous contraction force generated by individual microtissues was determined from the deflection of micropillars based on cantilever bending theory. Micropillar deflection was measured using phase contrast microscopy, by comparing the deflected position of the centroid of each pillar top to the centroid of its base. Microtissue contraction force was measured for the same batch of samples on a daily basis for each pharmacological condition. The micropillar spring constant was determined based on the actual geometry of the micropillar and the elastic modulus of the PDMS. […] In contrast, the force developed by untreated samples plateaued after 1 day at around 80 μN. […] The 4 μM fenretinide dose reduced the contractile force by Day 6 to around 70 μN, a reduction of about 38% as compared to TGF-β1 treated condition.
The effect of fenretinide 4 μM dose on the inhibition of microtissue contractile force was tested in a therapeutic treatment regimen. Fibrosis was first allowed to progress for three days under the induction of TGF-β1 (5 ng/ml) and fenretinide was then added from day 3 to day 6 to model a therapeutic treatment. […] TGF-β1 present in media for 3 days and absent for following 3 days (mean±SD, n=8). However, on day 6 as compared to day 3, fenretinide at 2 μM reduced the tissue contractility by 10%, 4 μM fenretinide by 15% and the combination of 2 μM fenretinide and 1.6 mM pirfenidone by 26%.

Cftr.KO mice = conditions: cited from earlier work
[2] = test system: Normal human lung fibroblast cells (NHLF cells, ATCC CRL-7000); test: αSMA mRNA transcript by qRT-PCR after TGF-β1 exposure in NHLF; assay type: cell-based; conditions: TGF-β1 2 ng/mL + fenretinide 1, 2, 3, 4 μM, 3 days, 5% FBS
Method: Normal human lung fibroblast cells (NHLF cells, ATCC CRL-7000, EMEM media; 5% FBS) were incubated for 3 days at 37° C. and treated with TGF-β1 (2 ng/mL) or TGF-β1 (2 ng/mL)+Fenretinide (1, 2, 3, 4 μM). At the end of the 3 day-treatment period, media was removed using a vacuum pump and total ribonucleic acid (RNA) was isolated using the TriReagent protocol (BioShop) and cDNA was obtained by reverse transcription using the SUPERSCRIPT® VILO®. αSMA transcript levels were determined by quantitative real-time Polymerase Chain Reaction (qRT-PCR) using the Fast SyBR Master Mix and specific probes, and quantified following the ΔΔCT, normalized to PUM-1 expression as internal control. The experiment was performed in quadruplicate (4 wells/condition).

Q: With `CC1=C(/C=C/C(C)=C/C=C/C(C)=C/C(=O)Nc2ccc(O)cc2)C(C)(C)CCC1` [fenretinide, 4-hydroxyphenyl retinamide] as the molecule, how does the “induction of Pro-collagen 1A1 protein levels (ELISA)” value [1] read?
A: attenuate and, at certain doses, completely abolish; also recorded: dose-dependent attenuation

Q: What about the “induction of Pro-collagen 1A1 protein levels (ELISA)” value ([1]; listed as Fenretinide) of the same molecule?
A: dose-dependent attenuation

Q: What about the inhibition at 4 µM (human lung microtissues; Homo sapiens, therapeutic treatment, 4 μM, read-out: inhibition of contractile force as compared to TGF-β1 only treated condition (positive control)) of the same molecule?
A: 57%

Q: What about the “TGF-β1-induced increase in contractile force” value (human lung microtissues; preventative treatment, 2 μM and 4 μM) of the same molecule?
A: inhibit TGF-131-induced increase in contractile force in a dose-dependent manner

Q: What about the microtissue contractile force (human lung microtissues; preventative treatment, 2 μM, 6-day measurement (TGF-β1 only around 130 μN, untreated around 80 μN)) of the same molecule?
A: 80-85 μN

Q: What about the “contractile force, reduction vs TGF-β1 only treated condition, percentage change” value (human lung microtissues; preventative treatment, 2 μM) of the same molecule?
A: about 28%

Q: What about the “contractile force, reduction vs TGF-β1 only treated condition, percentage change” value (human lung microtissues; preventative treatment, 2 μM, listed as Fenret) of the same molecule?
A: 28.0%

Q: And the “contractile force, reduction vs TGF-β1 only treated condition, percentage change” value (human lung microtissues; preventative treatment, 4 μM)?
A: about 38%

Q: What about the microtissue contractile force (human lung microtissues; preventative treatment, 4 μM, Day 6 (TGF-β1 only around 130 μN, untreated around 80 μN)) of the same molecule?
A: around 70 μN

Q: And the “contractile force, reduction vs TGF-β1 only treated condition, percentage change” value (human lung microtissues; preventative treatment, 4 μM, listed as Fenret)?
A: 38.0%

Q: And the “reduction of tissue contractility on day 6 as compared to day 3” value (human lung microtissues; therapeutic treatment, 2 μM)?
A: 10%

Q: What about the “reduction of tissue contractility on day 6 as compared to day 3” value (human lung microtissues; therapeutic treatment, 4 μM) of the same molecule?
A: 15%

Q: And the “contractile force, reduction vs TGF-β1 +3/−3 group on day 6, percentage change” value (human lung microtissues; therapeutic treatment, added day 3 to day 6, 2 μM)?
A: 34%

Q: What about the “contractile force, reduction vs TGF-β1 +3/−3 group on day 6, percentage change” value (human lung microtissues; therapeutic treatment, added day 3 to day 6, 2 μM, listed as Fenret) of the same molecule?
A: 34.0%

Q: And the “contractile force, reduction vs TGF-β1 +3/−3 group on day 6, percentage change” value (human lung microtissues; therapeutic treatment, added day 3 to day 6, 4 μM)?
A: 34%

Q: And the “contractile force, reduction vs TGF-β1 +3/−3 group on day 6, percentage change” value (human lung microtissues; therapeutic treatment, added day 3 to day 6, 4 μM, listed as Fenret)?
A: 34.0%

Q: And the “levels of DHA and AA and sphingolipids imbalance in the lungs and plasma” value (Cftr.KO mice)?
A: correct the levels

Q: And the lung inflammation (Cftr.KO mice)?
A: reduction

Q: What about the “pulmonary load of Pseudomonas aeruginosa” value (Cftr.KO mice) of the same molecule?
A: significant decrease

Q: What about the “induction of α-SMA fibrotic marker expression (mRNA, qRT-PCR)” value [2] of the same molecule?
A: attenuates, in a dose-dependent manner; also recorded: dose-dependent attenuation
